Assay results from publication PMC5695812, “Novel chloroacetamido compound CWR-J02 is an anti-inflammatory glutaredoxin-1 inhibitor” (PLoS ONE, 2017).

What was measured:
[1] = biological target: T1, glutaredoxin-1 (Grx1) (Mus musculus, UniProt Q9QUH0); test: Grx1 activity in lysates of treated BV2 murine microglia; click-biotin/streptavidin pull-down with MS and western blot; assay type: cell-based
T1 construct: gene Glrx
T1 sequence (Q9QUH0 2-107): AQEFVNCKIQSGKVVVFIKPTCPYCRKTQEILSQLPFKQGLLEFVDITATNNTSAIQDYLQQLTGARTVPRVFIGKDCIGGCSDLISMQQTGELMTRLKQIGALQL

[2] = biological target: T2, glutaredoxin-1 (Grx1) (Homo sapiens, UniProt P35754); test: isolated enzyme spectrophotometric assay ([…] min pre-incubation, […] GSH); Kitz-Wilson kinetics; tandem MS of the Cys-22 adduct; assay type: biochemical
T2 construct: gene GLRX
T2 sequence (P35754 2-106): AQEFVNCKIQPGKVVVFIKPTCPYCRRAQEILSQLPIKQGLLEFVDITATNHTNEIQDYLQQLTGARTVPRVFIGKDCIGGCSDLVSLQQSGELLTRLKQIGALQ

[3] = biological target: Cys22 (UniProt position 23, FIKPTCPYCRR); settings: cited from earlier work

IC50 [1]	IC50 [2]	Compound	pKa [3]
37 µM	32 µM	C#CCOc1cc(C(=O)NCc2ccc(NC(=O)CCl)cc2)cc(C(=O)OC)c1 [J02, methyl 3-((4-(2-chloroacetamido)benzyl)carbamoyl)-5-(prop-2-yn-1-yloxy) benzoate]	–
–	–	Glutaredoxin-1 (Grx1, thioltransferase) (Homo sapiens (inferred; species of the isolated enzyme not stated explicitly))	3.5
